ChEMBL document CHEMBL2021804, “Synthesis and evaluation of piperidine urea derivatives as efficacious 11β-hydroxysteroid dehydrogenase type 1 inhibitors in diabetic ob/ob mice” (Bioorg Med Chem Lett, 2012)

What was measured:
[1] = biological target: T1, 11-beta-hydroxysteroid dehydrogenase type 2 (Homo sapiens, UniProt P80365); assay: Inhibition of human 11beta-HSD2 expressed in HEK293 cells assessed as [3H]cortisol production after 60 mins by SPA; assay type: cell-based
T1 sequence (P80365 whole entry): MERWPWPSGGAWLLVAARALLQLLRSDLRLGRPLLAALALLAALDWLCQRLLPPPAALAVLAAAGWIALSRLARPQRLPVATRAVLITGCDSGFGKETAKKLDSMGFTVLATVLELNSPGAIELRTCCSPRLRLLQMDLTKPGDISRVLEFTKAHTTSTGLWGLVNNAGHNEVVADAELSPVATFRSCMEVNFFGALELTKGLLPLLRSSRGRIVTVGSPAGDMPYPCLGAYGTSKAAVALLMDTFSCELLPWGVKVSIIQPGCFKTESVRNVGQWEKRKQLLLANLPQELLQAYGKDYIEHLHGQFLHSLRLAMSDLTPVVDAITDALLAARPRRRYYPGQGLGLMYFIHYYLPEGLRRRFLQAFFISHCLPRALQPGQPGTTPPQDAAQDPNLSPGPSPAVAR

[2] = biological target: T2, 11-beta-hydroxysteroid dehydrogenase type 2 (Mus musculus, UniProt P51661); assay: Inhibition of mouse 11beta-HSD2 expressed in HEK293 cells assessed as [3H]cortisol production after 60 mins by SPA; assay type: cell-based
T2 sequence (P51661 whole entry): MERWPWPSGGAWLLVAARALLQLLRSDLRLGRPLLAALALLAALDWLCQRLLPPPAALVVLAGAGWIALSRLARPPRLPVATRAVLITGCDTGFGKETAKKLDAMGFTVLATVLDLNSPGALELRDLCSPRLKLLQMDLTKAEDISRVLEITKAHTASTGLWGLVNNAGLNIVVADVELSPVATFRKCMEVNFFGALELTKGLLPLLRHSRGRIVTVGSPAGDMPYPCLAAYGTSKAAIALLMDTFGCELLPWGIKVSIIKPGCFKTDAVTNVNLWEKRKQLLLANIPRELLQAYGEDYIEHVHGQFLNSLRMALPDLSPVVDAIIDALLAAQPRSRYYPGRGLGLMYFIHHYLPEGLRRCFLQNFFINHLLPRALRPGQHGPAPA

[3] = biological target: 11-beta-hydroxysteroid dehydrogenase 1 (Homo sapiens, UniProt P28845); assay: Inhibition of human 11beta-HSD1 expressed in HEK293 cells assessed as [3H]cortisol production after 60 mins by SPA; assay type: cell-based
Chain of 11-beta-hydroxysteroid dehydrogenase 1 (Homo sapiens, UniProt P28845) (P28845 whole entry): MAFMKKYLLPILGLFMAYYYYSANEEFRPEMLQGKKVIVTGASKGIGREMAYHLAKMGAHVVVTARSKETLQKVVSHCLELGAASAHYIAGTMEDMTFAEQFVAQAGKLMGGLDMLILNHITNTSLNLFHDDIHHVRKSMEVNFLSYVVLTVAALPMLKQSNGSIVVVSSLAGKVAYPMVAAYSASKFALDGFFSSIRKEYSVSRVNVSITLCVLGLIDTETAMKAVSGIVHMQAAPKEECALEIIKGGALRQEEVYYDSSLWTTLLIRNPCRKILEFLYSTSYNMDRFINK

[4] = system: HEK293; assay: Selectivity ratio of IC50 for human 11beta-HSD1 expressed in HEK293 cells to IC50 for mouse 11beta-HSD1 expressed in HEK293 cells; assay type: cell-based
[5] = biological target: 11-beta-hydroxysteroid dehydrogenase 1 (Mus musculus, UniProt P50172); assay: Inhibition of mouse 11beta-HSD1 expressed in HEK293 cells assessed as [3H]cortisol production after 60 mins by SPA; assay type: cell-based
Chain of 11-beta-hydroxysteroid dehydrogenase 1 (Mus musculus, UniProt P50172) (P50172 whole entry): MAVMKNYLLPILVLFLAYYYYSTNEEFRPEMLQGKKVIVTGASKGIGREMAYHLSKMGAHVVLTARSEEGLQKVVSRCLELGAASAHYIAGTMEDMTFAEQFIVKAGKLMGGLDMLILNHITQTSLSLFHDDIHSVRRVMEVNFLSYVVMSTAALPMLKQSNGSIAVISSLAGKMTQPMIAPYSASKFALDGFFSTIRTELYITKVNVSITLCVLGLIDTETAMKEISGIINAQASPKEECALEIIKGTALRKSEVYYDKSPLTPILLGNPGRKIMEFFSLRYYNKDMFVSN

[6] = Tmax in po dosed Sprague-Dawley rat; assay type: ADME, organism-based; conditions: in vivo
[7] = AUC (0 to infinity) in po dosed Sprague-Dawley rat; assay type: ADME, organism-based; parameters: route oral, time infinity; conditions: plasma
[8] = Cmax in po dosed Sprague-Dawley rat; assay type: ADME, organism-based; parameters: route oral; conditions: in vivo
[9] = Mean residence time in po dosed Sprague-Dawley rat; assay type: ADME, organism-based; conditions: in vivo
[10] = Half life in po dosed Sprague-Dawley rat; assay type: ADME, organism-based; conditions: in vivo
[11] = AUC (0 to t) in po dosed Sprague-Dawley rat; assay type: ADME, organism-based; conditions: plasma
[12] = AUC in Sprague-Dawley rat at 5 mg/kg, po; assay type: ADME, organism-based; parameters: dose 5 mg/kg, route oral; conditions: plasma
[13] = system: HEK293; assay: Selectivity ratio of IC50 for human 11beta-HSD2 expressed in HEK293 cells to IC50 for human 11beta-HSD1 expressed in HEK293 cells; assay type: cell-based
[14] = system: Mus musculus; assay: Antidiabetic activity in ob/ob mouse type 2 diabetes model assessed as reduction in blood glucose level at 50 mg/kg, ip once daily for 5 days measured on day 15; assay type: functional; parameters: scale not given: the % may be the effect or the level left; conditions: route intraperitoneal
[15] = system: Mus musculus; assay: Toxicity in ob/ob mouse type 2 diabetes model assessed as effect on food intake at 50 mg/kg, ip once daily for 20 days measured every 4 days for 20 days; assay type: organism-based; parameters: dose 50 mg/kg, route intraperitoneal; conditions: in vivo, 480 h
[16] = system: Mus musculus; assay: Toxicity in ob/ob mouse type 2 diabetes model assessed as effect on body weight at 50 mg/kg, ip once daily for 20 days measured every 5 days for 20 days; assay type: organism-based; parameters: dose 50 mg/kg, route intraperitoneal; conditions: in vivo, 480 h
[17] = system: Mus musculus; assay: Antidiabetic activity in ob/ob mouse type 2 diabetes model assessed as reduction in fasting blood glucose level at 50 mg/kg, ip once daily for 5 days measured on day 10; assay type: functional; parameters: scale not given: the % may be the effect or the level left; conditions: route intraperitoneal
[18] = system: Mus musculus; assay: Antidiabetic activity in ob/ob mouse type 2 diabetes model assessed as reduction in fasting blood glucose level at 50 mg/kg, ip once daily for 5 days measured on day 15; assay type: functional; parameters: scale not given: the % may be the effect or the level left; conditions: route intraperitoneal
[19] = system: Mus musculus; assay: Antidiabetic activity in ob/ob mouse type 2 diabetes model assessed as reduction in fasting blood glucose level at 50 mg/kg, ip once daily for 20 days; assay type: functional; parameters: scale not given: the % may be the effect or the level left; conditions: route intraperitoneal
[20] = system: Mus musculus; assay: Antidiabetic activity in ob/ob mouse type 2 diabetes model assessed as reduction in nonfasting blood glucose level at 50 mg/kg, ip once daily for 20 days; assay type: functional; parameters: scale not given: the % may be the effect or the level left; conditions: route intraperitoneal
[21] = system: Mus musculus; assay: Antidiabetic activity in ob/ob mouse type 2 diabetes model assessed as reduction in blood glucose level at 50 mg/kg, ip once daily for 5 days measured on day 20; assay type: functional; parameters: scale not given: the % may be the effect or the level left; conditions: route intraperitoneal
[22] = system: Mus musculus; assay: Antidiabetic activity in ob/ob mouse type 2 diabetes model assessed as reduction in fasting blood glucose level at 50 mg/kg, ip once daily for 5 days measured on day 20; assay type: functional; parameters: scale not given: the % may be the effect or the level left; conditions: route intraperitoneal
[23] = system: Mus musculus; assay: Antidiabetic activity in ob/ob mouse type 2 diabetes model assessed as reduction in blood glucose level at 50 mg/kg, ip once daily for 5 days measured on day 10; assay type: functional; parameters: scale not given: the % may be the effect or the level left; conditions: route intraperitoneal
[24] = system: Mus musculus; assay: Antidiabetic activity in ob/ob mouse type 2 diabetes model assessed as reduction in nonfasting blood glucose level at 50 mg/kg, ip once daily for 5 days; assay type: functional; parameters: scale not given: the % may be the effect or the level left; conditions: route intraperitoneal

SMILES: O=C(N1CCC(CN2C(=O)Nc3ccc(Cl)cc3S2(=O)=O)CC1)N(C1CCCCC1)C1CC1
- EC50 [1]: 2200 nM
- EC50 [2]: > 100000 nM
- EC50 [3]: 121 nM
- Ratio IC50 [4]: 3
- EC50 [5]: 37 nM

SMILES: CN(C(=O)c1cccc(CN2C(=O)Nc3ccc(Cl)cc3S2(=O)=O)c1)C1C2CC3CC(C2)CC1C3 (configuration not stated)
- EC50 [3]: 4 nM
- EC50 [5]: 69 nM

SMILES: O=C(NC12CC3CC(CC(C3)C1)C2)c1ccc(CN2C(=O)Nc3ccc(Cl)cc3S2(=O)=O)cc1
- EC50 [3]: 47 nM
- EC50 [5]: 14 nM

SMILES: O=C(c1ccc(CN2C(=O)Nc3ccc(Cl)cc3S2(=O)=O)cc1)N(C1CCCCC1)C1CC1
- EC50 [3]: 60 nM
- EC50 [5]: 185 nM

SMILES: CN(C(=O)c1ccc(CN2C(=O)Nc3ccc(Cl)cc3S2(=O)=O)cc1)C1CCCCCC1
- EC50 [3]: 90 nM
- EC50 [5]: 210 nM

SMILES: O=C(c1cccc(CN2C(=O)Nc3ccc(Cl)cc3S2(=O)=O)c1)N(C1CCCCCC1)C1CC1
- Tmax [6]: 2.3 h
- AUC(0-inf) [7]: 16.1 ng·h/mL
- Cmax [8]: 3.86 ng/mL
- MRT [9]: 4.02 h
- EC50 [3]: 1 nM
- EC50 [5]: 258 nM
- half-life [10]: 2.02 h
- AUC(0-t) [11]: 15.5 ng·h/mL

SMILES: CC1(C)[C@@H](O[C@H]2O[C@H](C(=O)O)[C@@H](O)[C@H](O)[C@H]2O[C@@H]2O[C@H](C(=O)O)[C@@H](O)[C@H](O)[C@H]2O)CC[C@]2(C)[C@H]3C(=O)C=C4[C@@H]5C[C@@](C)(C(=O)O)CC[C@]5(C)CC[C@@]4(C)[C@]3(C)CC[C@@H]12 [GLYCYRRHIZIN]
- EC50 [3]: 10 nM
- EC50 [5]: 8 nM

SMILES: CN(C(=O)c1cccc(CN2C(=O)Nc3ccc(Cl)cc3S2(=O)=O)c1)C1CCCCCC1
- EC50 [3]: 4 nM
- EC50 [5]: 401 nM

SMILES: CN(C(=O)N1CCC(CN2C(=O)Nc3ccc(Cl)cc3S2(=O)=O)CC1)C1C2CC3CC(C2)CC1C3 (configuration not stated)
- EC50 [1]: 720 nM
- EC50 [2]: > 100000 nM
- EC50 [3]: 158 nM
- Ratio IC50 [4]: 3
- EC50 [5]: 2 nM

SMILES: O=C(NC1CCCCC1)c1ccc(CN2C(=O)Nc3ccc(Cl)cc3S2(=O)=O)cc1
- EC50 [3]: 686 nM
- EC50 [5]: 529 nM

SMILES: O=C(NC1CCCCCC1)c1ccc(CN2C(=O)Nc3ccc(Cl)cc3S2(=O)=O)cc1
- EC50 [3]: 802 nM
- EC50 [5]: 145 nM

SMILES: CN(C(=O)c1ccc(CN2C(=O)Nc3ccc(Cl)cc3S2(=O)=O)cc1)C12CC3CC(CC(C3)C1)C2
- EC50 [3]: 70 nM
- EC50 [5]: 55 nM

SMILES: O=C(NC1CCCCCC1)N1CCC(CN2C(=O)Nc3ccc(Cl)cc3S2(=O)=O)CC1
- EC50 [3]: 283 nM
- Ratio IC50 [4]: 3
- EC50 [5]: 17 nM

SMILES: CN(C(=O)N1CCC(CN2C(=O)Nc3ccc(Cl)cc3S2(=O)=O)CC1)C1CCCCCC1
- Tmax [6]: 2 h
- AUC [12]: 147 ng·h/mL
- Ratio IC50 [13]: 40
- AUC(0-inf) [7]: 209 ng·h/mL
- Cmax [8]: 46.8 ng/mL
- Activity [14]: 34.6%
- Activity [15]: Non-toxic
- MRT [9]: 4.24 h
- Activity [16]: Non-toxic
- Activity [17]: 33.3%
- EC50 [1]: 860 nM
- EC50 [2]: > 100000 nM
- Activity [18]: 39.4%
- EC50 [3]: 21 nM
- Activity [19]: 31.4%
- Activity [20]: 25.7%
- Activity [21]: 35.6%
- Ratio IC50 [4]: 3
- EC50 [5]: 0.41 nM
- Activity [22]: 36.1%
- half-life [10]: 2.3 h
- Activity [23]: 27.9%
- AUC(0-t) [11]: 173 ng·h/mL
- Activity [24]: 25%

SMILES: O=C(N1CCC(CN2C(=O)Nc3ccc(Cl)cc3S2(=O)=O)CC1)N(C1CCCCCC1)C1CC1
- EC50 [3]: 517 nM
- Ratio IC50 [4]: 3
- EC50 [5]: 10 nM

SMILES: O=C(NC1CCCCCCC1)c1ccc(CN2C(=O)Nc3ccc(Cl)cc3S2(=O)=O)cc1
- EC50 [3]: 443 nM
- EC50 [5]: 180 nM

SMILES: O=C(c1cccc(CN2C(=O)Nc3ccc(Cl)cc3S2(=O)=O)c1)N(C1CCCCC1)C1CC1
- EC50 [3]: 3 nM
- EC50 [5]: 58 nM

SMILES: O=C(c1ccc(CN2C(=O)Nc3ccc(Cl)cc3S2(=O)=O)cc1)N(C1CCCCCC1)C1CC1
- EC50 [3]: 55 nM
- EC50 [5]: 84 nM
